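Each compound was tested at five concentrations against cells in 96-well plates for 48 hours. At the GI50, growth is halved.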 Activity calls are given as the source filed them. No stated cut-off is given here; in the data, active = GI50 up to about 1.1 µM and inactive = higher.
Legend:
Test in all cases: inhibition of tumour cell growth, NCI panel, 48 h
MDA-N = system: MDA-N
RPMI-8226 = system: RPMI-8226
OVCAR-8 = system: OVCAR-8
SF-295 = system: SF-295
TK-10 = system: TK-10
HL-60 = system: HL-60
PC-3 = system: PC-3
A549 = system: A549
SR = system: SR
SK-MEL-2 = system: SK-MEL-2
KM12 = system: KM12
CAKI-1 = system: CAKI-1
Malme-3M = system: Malme-3M
MCF7 = system: MCF7
SF-539 = system: SF-539
HT-29 = system: HT-29
IGROV-1 = system: IGROV-1
MDA-MB-435 = system: MDA-MB-435
SK-MEL-5 = system: SK-MEL-5
K562 = system: K562
NCI-H23 = system: NCI-H23
T47D = system: T47D
UACC-257 = system: UACC-257
RXF 393 = system: RXF 393
BT-549 = system: BT-549
SF-268 = system: SF-268
HCT-15 = system: HCT-15
OVCAR-5 = system: OVCAR-5
CCRF-CEM = system: CCRF-CEM
SNB-19 = system: SNB-19
ACHN = system: ACHN
DU-145 = system: DU-145
OVCAR-3 = system: OVCAR-3
HOP-62 = system: HOP-62
SK-MEL-28 = system: SK-MEL-28
UO-31 = system: UO-31
U-251 = system: U-251
SK-OV-3 = system: SK-OV-3
HCC 2998 = system: HCC 2998
EKVX = system: EKVX
LOX IMVI = system: LOX IMVI
MDA-MB-231 = system: MDA-MB-231
OVCAR-4 = system: OVCAR-4
HCT-116 = system: HCT-116
COLO 205 = system: COLO 205
SW-620 = system: SW-620
HOP-92 = system: HOP-92
Hs-578T = system: Hs-578T
786-0 = system: 786-0
MOLT-4 = system: MOLT-4
NCI/ADR-RES = system: NCI/ADR-RES
SN12C = system: SN12C
UACC-62 = system: UACC-62
NCI-H226 = system: NCI-H226
NCI-H522 = system: NCI-H522
NCI-H460 = system: NCI-H460
M14 = system: M14
A498 = system: A498
SNB-75 = system: SNB-75

## COC1(OC)CC(CO)(CNc2cc(Cl)nc(N)n2)C1
MDA-N
  GI50: > 100 µM (inactive)
RPMI-8226
  GI50: > 100 µM (inactive)
OVCAR-8
  GI50: > 100 µM (inactive)
SF-295
  GI50: > 100 µM (inactive)
TK-10
  GI50: > 100 µM (inactive)
HL-60
  GI50: > 100 µM (inactive)
PC-3
  GI50: > 100 µM (inactive)
A549
  GI50: > 100 µM (inactive)
SR
  GI50: > 100 µM (inactive)
SK-MEL-2
  GI50: > 100 µM (inactive)
KM12
  GI50: > 100 µM (inactive)
CAKI-1
  GI50: > 100 µM (inactive)
Malme-3M
  GI50: > 100 µM (inactive)
MCF7
  GI50: > 100 µM (inactive)
SF-539
  GI50: > 100 µM (inactive)
HT-29
  GI50: > 100 µM (inactive)
IGROV-1
  GI50: > 100 µM (inactive)
MDA-MB-435
  GI50: > 100 µM (inactive)
SK-MEL-5
  GI50: > 100 µM (inactive)
K562
  GI50: > 100 µM (inactive)
NCI-H23
  GI50: > 100 µM (inactive)
T47D
  GI50: 24.9 µM (inactive)
UACC-257
  GI50: 39.1 µM (inactive)
RXF 393
  GI50: 55.7 µM (inactive)
BT-549
  GI50: > 100 µM (inactive)
SF-268
  GI50: > 100 µM (inactive)
HCT-15
  GI50: > 100 µM
OVCAR-5
  GI50: > 100 µM (inactive)
CCRF-CEM
  GI50: > 100 µM (inactive)
SNB-19
  GI50: > 100 µM (inactive)
ACHN
  GI50: > 100 µM (inactive)
DU-145
  GI50: > 100 µM (inactive)
OVCAR-3
  GI50: > 100 µM (inactive)
HOP-62
  GI50: > 100 µM (inactive)
SK-MEL-28
  GI50: > 100 µM (inactive)
UO-31
  GI50: > 100 µM (inactive)
U-251
  GI50: > 100 µM (inactive)
SK-OV-3
  GI50: > 100 µM (inactive)
HCC 2998
  GI50: > 100 µM (inactive)
EKVX
  GI50: 39.7 µM (inactive)
LOX IMVI
  GI50: > 100 µM (inactive)
MDA-MB-231
  GI50: > 100 µM (inactive)
OVCAR-4
  GI50: > 100 µM (inactive)
HCT-116
  GI50: > 100 µM (inactive)
COLO 205
  GI50: > 100 µM (inactive)
SW-620
  GI50: > 100 µM (inactive)
HOP-92
  GI50: > 10 µM (inactive)
Hs-578T
  GI50: > 100 µM (inactive)
786-0
  GI50: > 100 µM (inactive)
MOLT-4
  GI50: > 100 µM (inactive)
NCI/ADR-RES
  GI50: > 100 µM (inactive)
SN12C
  GI50: > 100 µM (inactive)
UACC-62
  GI50: > 100 µM (inactive)
NCI-H226
  GI50: > 100 µM (inactive)
NCI-H522
  GI50: > 100 µM (inactive)
NCI-H460
  GI50: > 100 µM (inactive)

## CC1=C[C@@H]2Cc3nc4cc(Cl)ccc4c(N)c3[C@H](C1)C2
MDA-N
  GI50: 15.5 µM (inactive)
RPMI-8226
  GI50: 3.66 µM (inactive)
OVCAR-8
  GI50: 15.3 µM (inactive)
SF-295
  GI50: 6.17 µM (inactive)
TK-10
  GI50: 5.78 µM (inactive)
HL-60
  GI50: 15.3 µM (inactive)
PC-3
  GI50: 12.5 µM (inactive)
A549
  GI50: 12.6 µM (inactive)
SK-MEL-2
  GI50: 14.7 µM (inactive)
KM12
  GI50: 7.6 µM (inactive)
CAKI-1
  GI50: 3.89 µM (inactive)
Malme-3M
  GI50: 12 µM (inactive)
MCF7
  GI50: 10 µM (inactive)
SF-539
  GI50: 12.4 µM (inactive)
HT-29
  GI50: 2.68 µM (inactive)
IGROV-1
  GI50: 1.76 µM (inactive)
MDA-MB-435
  GI50: 10.9 µM (inactive)
SK-MEL-5
  GI50: 2.84 µM (inactive)
K562
  GI50: 2.71 µM (inactive)
NCI-H23
  GI50: 8.22 µM (inactive)
T47D
  GI50: 12.3 µM (inactive)
UACC-257
  GI50: 2.02 µM (inactive)
RXF 393
  GI50: 5.42 µM (inactive)
BT-549
  GI50: 16.2 µM (inactive)
SF-268
  GI50: 12.5 µM (inactive)
HCT-15
  GI50: 7 µM
OVCAR-5
  GI50: 4.28 µM (inactive)
CCRF-CEM
  GI50: 12.2 µM (inactive)
SNB-19
  GI50: 11.8 µM (inactive)
ACHN
  GI50: 10.6 µM (inactive)
DU-145
  GI50: 12.9 µM (inactive)
OVCAR-3
  GI50: 10.4 µM (inactive)
HOP-62
  GI50: 11.2 µM (inactive)
SK-MEL-28
  GI50: 12.3 µM (inactive)
UO-31
  GI50: 5.06 µM (inactive)
U-251
  GI50: 13.4 µM (inactive)
SK-OV-3
  GI50: 12 µM (inactive)
EKVX
  GI50: 3.32 µM (inactive)
M14
  GI50: 4.57 µM (inactive)
LOX IMVI
  GI50: 5.38 µM (inactive)
MDA-MB-231
  GI50: 11.6 µM (inactive)
OVCAR-4
  GI50: 3.99 µM (inactive)
HCT-116
  GI50: 2.96 µM (inactive)
COLO 205
  GI50: 1.48 µM (inactive)
SW-620
  GI50: 11 µM (inactive)
HOP-92
  GI50: 0.685 µM (active)
Hs-578T
  GI50: 2.42 µM (inactive)
786-0
  GI50: 6.03 µM (inactive)
MOLT-4
  GI50: 2.07 µM (inactive)
A498
  GI50: 11.2 µM (inactive)
NCI/ADR-RES
  GI50: 11.7 µM (inactive)
SNB-75
  GI50: 4.97 µM (inactive)
SN12C
  GI50: 12.4 µM (inactive)
UACC-62
  GI50: 14.6 µM (inactive)
NCI-H226
  GI50: 8.38 µM (inactive)
NCI-H460
  GI50: 9.02 µM (inactive)

## C#C/C=C\CCCC/C=C\C#CC#CCCCC#CC#C[C@H](COS(=O)(=O)O)OS(=O)(=O)O
MDA-N
  GI50: > 100 µM (inactive)
RPMI-8226
  GI50: > 100 µM (inactive)
OVCAR-8
  GI50: > 100 µM (inactive)
SF-295
  GI50: > 100 µM (inactive)
TK-10
  GI50: > 100 µM (inactive)
HL-60
  GI50: > 100 µM (inactive)
PC-3
  GI50: > 100 µM (inactive)
A549
  GI50: > 100 µM (inactive)
SR
  GI50: > 100 µM (inactive)
SK-MEL-2
  GI50: > 100 µM (inactive)
KM12
  GI50: > 100 µM (inactive)
CAKI-1
  GI50: > 100 µM (inactive)
MCF7
  GI50: > 100 µM (inactive)
SF-539
  GI50: > 100 µM (inactive)
HT-29
  GI50: > 100 µM (inactive)
IGROV-1
  GI50: > 100 µM (inactive)
MDA-MB-435
  GI50: > 100 µM (inactive)
SK-MEL-5
  GI50: > 100 µM (inactive)
NCI-H23
  GI50: > 100 µM (inactive)
T47D
  GI50: > 100 µM (inactive)
UACC-257
  GI50: > 100 µM (inactive)
BT-549
  GI50: > 100 µM (inactive)
SF-268
  GI50: > 100 µM (inactive)
HCT-15
  GI50: > 100 µM
OVCAR-5
  GI50: > 100 µM (inactive)
CCRF-CEM
  GI50: > 100 µM (inactive)
SNB-19
  GI50: > 100 µM (inactive)
ACHN
  GI50: > 100 µM (inactive)
DU-145
  GI50: > 100 µM (inactive)
OVCAR-3
  GI50: > 100 µM (inactive)
HOP-62
  GI50: > 100 µM (inactive)
SK-MEL-28
  GI50: > 100 µM (inactive)
UO-31
  GI50: 72.4 µM (inactive)
U-251
  GI50: > 100 µM (inactive)
HCC 2998
  GI50: > 100 µM (inactive)
EKVX
  GI50: > 100 µM (inactive)
M14
  GI50: > 100 µM (inactive)
LOX IMVI
  GI50: > 100 µM (inactive)
MDA-MB-231
  GI50: > 100 µM (inactive)
OVCAR-4
  GI50: > 100 µM (inactive)
HCT-116
  GI50: > 100 µM (inactive)
COLO 205
  GI50: > 100 µM (inactive)
SW-620
  GI50: > 100 µM (inactive)
HOP-92
  GI50: > 100 µM (inactive)
Hs-578T
  GI50: > 100 µM (inactive)
786-0
  GI50: > 100 µM (inactive)
MOLT-4
  GI50: > 100 µM (inactive)
NCI/ADR-RES
  GI50: > 100 µM (inactive)
SNB-75
  GI50: 33 µM (inactive)
SN12C
  GI50: > 100 µM (inactive)
UACC-62
  GI50: > 100 µM (inactive)
NCI-H522
  GI50: > 100 µM (inactive)
NCI-H460
  GI50: > 100 µM (inactive)
